What was measured:
[1] = molecular target: T1, Glucocorticoid Receptor (GR) (Homo sapiens, UniProt P04150); experiment: GR Fluorescence Polarization Assay (PolarScreen Glucocorticoid Receptor Competitor Assay, Red); conditions: IC50 class ranges, read-out: GR binding
T1 construct: purchased Invitrogen P2893
T1 sequence (P04150 1-777): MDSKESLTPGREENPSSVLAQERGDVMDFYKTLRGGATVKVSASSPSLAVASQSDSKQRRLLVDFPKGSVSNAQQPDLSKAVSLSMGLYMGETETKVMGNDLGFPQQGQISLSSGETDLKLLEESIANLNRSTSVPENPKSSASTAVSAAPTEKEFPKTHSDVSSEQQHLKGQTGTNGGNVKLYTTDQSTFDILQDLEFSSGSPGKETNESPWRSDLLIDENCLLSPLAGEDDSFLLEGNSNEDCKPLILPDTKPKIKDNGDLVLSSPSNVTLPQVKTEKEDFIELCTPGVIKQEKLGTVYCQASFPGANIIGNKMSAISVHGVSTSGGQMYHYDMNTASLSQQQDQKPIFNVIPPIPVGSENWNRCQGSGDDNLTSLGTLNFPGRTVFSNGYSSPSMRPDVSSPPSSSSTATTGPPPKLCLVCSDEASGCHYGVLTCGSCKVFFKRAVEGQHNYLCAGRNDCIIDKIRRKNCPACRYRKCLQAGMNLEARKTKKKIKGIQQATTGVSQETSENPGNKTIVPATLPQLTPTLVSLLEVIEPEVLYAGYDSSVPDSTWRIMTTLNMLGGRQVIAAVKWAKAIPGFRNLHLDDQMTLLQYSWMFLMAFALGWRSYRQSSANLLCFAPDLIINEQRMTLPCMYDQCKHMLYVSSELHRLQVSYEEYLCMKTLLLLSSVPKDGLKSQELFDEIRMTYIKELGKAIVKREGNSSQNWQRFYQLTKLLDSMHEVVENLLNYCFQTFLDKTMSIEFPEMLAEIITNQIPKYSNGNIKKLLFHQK
Method in brief: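 Competitive fluorescence-polarization assay using a red fluorescent glucocorticoid tracer with human GR in kit buffer. Compounds serially diluted 1:4 in DMSO, incubated with tracer and GR overnight at 4° C, then polarization read.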

[2] = tested on: IL-6 in A549 cells stimulated with IL-1β; experiment: A549 Cell Assay to Measure Inflammation Markers (inhibition of IL-1β-induced IL-6); format: cell-based; conditions: intrinsic activity, Emax class ranges; for Emax: Homo sapiens, A549, A549 Cell Assay to Measure Inflammation Markers
Method in brief: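 Compound pre-incubated with A549 cells 1 h at 37 °C, then stimulated with IL-1β (1 ng/mL final, 0.1% DMSO). Supernatant IL-6 quantified by MSD immunoassay after a further incubation. IC50 and Emax derived.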

Compound | IC50 [1] | Emax [2] | A549 Emax ([2]; A549 Cell Assay to Measure Inflammation Markers)
Cn1nc(-c2ccccn2)c2c1NCCSC2c1ccc(Cl)cc1Cl (stereo not shown) [D.8, 4-(2,4-dichlorophenyl)-1-methyl-3-(2-pyridyl)-4,6,7,8-tetrahydropyrazolo[3,4-e][1,4]thiazepine] | < 100 nM | < 50% | 
CCn1nc(-c2ccccn2)c2c1NCCSC2c1ccc(C(=O)Nc2n[nH]cc2C#N)cc1C (stereo not shown) [S.8] | < 100 nM | > 50% | 
CCn1nc(-c2ccccn2)c2c1NCCSC2c1ccc(C#N)cc1C (single isomer, unassigned) [M.22, 3-methyl-4-(1-ethyl-3-(pyridin-2-yl)-4,6,7,8-tetrahydro-1H-pyrazolo[3,4-e][1,4]thiazepin-4-yl)benzonitrile] | < 100 nM | > 70% | 
Cc1cc(Cl)ccc1C1SC(C)(C)CNc2c1c(C1CC1)nn2C (stereo not shown) [D.45] | < 100 nM | > 60% | 
Cn1nc(-c2ccccn2)c2c1NCCSC2c1ccc(Cl)cc1Br (stereo not shown) [D.37, 4-(2-bromo-4-chloro-phenyl)-1-methyl-3-(2-pyridyl)-4,6,7,8-tetrahydropyrazolo[3,4-e][1,4]thiazepine] | < 100 nM | > 50% | 
Cc1cc(C(=O)Nc2cccnc2C)ccc1[C@H]1CC[C@@](O)(C(F)(F)F)Cc2c1c(-c1ccccn1)nn2C (racemic) | < 100 nM | > 70% | 
CCn1nc(-c2ccccn2)c2c1N[C@H](C)CS[C@H]2c1ccc(C(N)=O)cc1C (single isomer, unassigned) [M.46, 4-(1-ethyl-7-methyl-3-(pyridin-2-yl)-4,6,7,8-tetrahydro-1H-pyrazolo[3,4-e][1,4]thiazepin-4-yl)-3-methylbenzamide] | < 100 nM | > 50% | 
Cc1cc(Cl)ccc1C1SCC(C)Nc2c1c(-c1ccccn1)nn2C (racemic) [4-(4-chloro-2-methyl-phenyl)-1,7-dimethyl-3-(2-pyridyl)-4,6,7,8-tetrahydropyrazolo[3,4-e][1,4]thiazepine] | < 100 nM | > 70% | 
CCn1nc(-c2ccccn2)c2c1N[C@@H](C)CS[C@H]2c1ccc(C#CCO)cc1C (single isomer, unassigned) [M.28, 3-(4-(1-ethyl-7-methyl-3-(pyridin-2-yl)-4,6,7,8-tetrahydro-1H-pyrazolo[3,4-e][1,4]thiazepin-4-yl)-3-methylphenyl)prop-2-yn-1-ol] | < 100 nM | > 60% | 
Cc1cc(Cl)ccc1C1SCCNc2c1c(-c1ccccn1)nn2C (stereo not shown) [D.1, 4-(4-chloro-2-methyl-phenyl)-1-methyl-3-(2-pyridyl)-4,6,7,8-tetrahydro-pyrazolo[3,4-e][1,4]thiazepine] | < 100 nM | > 60% | 
Cc1ncccc1NC(=O)c1ccc(-c2nn(C)c3c2C(c2ccc(Cl)cc2Cl)SCCN3)nc1 (stereo not shown) [F.2] | 1000 to 10000 nM | < 50% | 
Cc1cc(OCC#N)ccc1[C@@H]1SC[C@@H](C)Nc2c1c(-c1ccccn1)nn2C (single isomer, unassigned) [M.23, 2-(4-(1,7-dimethyl-3-(pyridin-2-yl)-4,6,7,8-tetrahydro-1H-pyrazolo[3,4-e][1,4]thiazepin-4-yl)-3-methylphenoxy)acetonitrile] | < 100 nM | > 50% | 
CCn1nc(-c2ccccn2)c2c1NC(=O)CCC2c1ccc(Br)cc1C (stereo not shown) [AA.1, 4-(4-Bromo-2-methylphenyl)-1-ethyl-3-(pyridin-2-yl)-4,5,6,8-tetrahydropyrazolo[3,4-b]azepin-7(1H)-one] | < 100 nM | < 50% | 
Cn1nc(-c2ccccn2)c2c1NCCSC2c1ccc(Br)cc1Cl (stereo not shown) | < 100 nM | < 50% | 
Cc1cc(S(C)(=O)=O)ccc1C1SCCNc2c1c(-c1ccccn1)nn2C (stereo not shown) | 100 to 1000 nM | < 50% | 
Cc1cc(C(=O)Nc2cccnc2C)ccc1C1SCC(CO)Nc2c1c(-c1ccccn1)nn2C (single isomer, unassigned) | < 100 nM | > 70% | 
Cn1nc(-c2ccncc2)c2c1NCCSC2c1ccc(Cl)cc1Cl (stereo not shown) [D.18] | 100 to 1000 nM | < 50% | 
Cc1nn(C)c2c1C(c1ccc(Cl)cc1)SC(CCO)CN2 (stereo not shown) [D.68, 2-(4-(4-chlorophenyl)-1,3-dimethyl-4,6,7,8-tetrahydro-1H-pyrazolo[3,4-e][1,4]thiazepin-6-yl)ethanol 2,2,2-trifluoracetate] | < 100 nM | < 50% | 
CCn1nc(-c2ccccn2)c2c1NCCSC2c1ccc(C(=O)Nc2cccnc2C)cc1C (stereo not shown) [H.4] | < 100 nM | > 70% | 
Cn1nc(-c2ccc(Br)cn2)c2c1NCCSC2c1ccc(Cl)cc1Cl (stereo not shown) [D.15, 3-(5-bromo-2-pyridyl)-4-(2,4-dichlorophenyl)-1-methyl-4,6,7,8-tetrahydropyrazolo[3,4-e][1,4]thiazepine] | < 100 nM | < 50% | 
Cc1cc2c(cnn2-c2ccc(F)cc2)cc1C1SCC(=O)Nc2c1c(-c1ccccn1)nn2C (racemic) | < 100 nM | > 70% | 

Compound | IC50 [1] | Emax [2] | A549 Emax ([2]; A549 Cell Assay to Measure Inflammation Markers)
Cc1n[nH]c2c1C(c1ccc(Cl)cc1Cl)SC(C)(C)CN2 (stereo not shown) [D.63] | 1000 to 10000 nM | < 50% | 
Cc1cc(Cl)ccc1C1SCCNc2c1c(-c1cc(Br)ccn1)nn2C (stereo not shown) [D.19] | < 100 nM | < 50% | 
Cc1cc(Br)sc1C1SCCNc2c1c(-c1ccccn1)nn2C (stereo not shown) [D.26, 4-(5-bromo-3-methyl-2-thienyl)-1-methyl-3-(2-pyridyl)-4,6,7,8-tetrahydropyrazolo[3,4-e][1,4]thiazepine] | < 100 nM | < 50% | 
CCn1nc(-c2ccccn2)c2c1NCCCC2c1ccc(Br)cc1C (stereo not shown) [BB.1, 4-(4-bromo-2-methylphenyl)-1-ethyl-3-(pyridin-2-yl)-1,4,5,6,7,8-hexahydropyrazolo[3,4-b]azepine] | < 100 nM | > 70% | 
Cc1cc(F)ccc1C1SCCNc2c1c(-c1ccccn1)nn2C (stereo not shown) [D.11] | < 100 nM | > 50% | 
Cc1ncccc1NC(=O)c1ccc([C@H]2SCCNc3c2c(-c2ccccn2)nn3C)c(Cl)c1 | < 100 nM |  | A (a compound with Emax>70%)
COc1cc(Cl)ccc1C1SCCNc2c1c(-c1ccccn1)nn2C (stereo not shown) [D.5] | < 100 nM | < 50% | 
Cc1cc(Cl)ccc1C1SC(CCO)C(C)Nc2c1c(C)nn2C (single isomer, unassigned) | 100 to 1000 nM | > 70% | 
COc1cc(C2SCCNc3c2c(-c2ccccn2)nn3C)c(C)cc1Cl (stereo not shown) [D.35] | 1000 to 10000 nM | < 50% | 
Cc1cc(Cl)ccc1[C@@H]1S[C@@H](CCO)[C@@H](C)Nc2c1c(C)nn2C (racemic) | < 100 nM | > 70% | 
Cc1ncccc1NC(=O)c1ccc(C2SCCNc3c2c(-c2ccccn2)nn3C)c(Cl)c1 (single isomer, unassigned) | 1000 to 10000 nM | < 50% | 
Cn1nc(-c2ccccn2)c2c1NCCSC2c1ccc(C(N)=O)cc1Cl (stereo not shown) [I.1, 3-chloro-4-[1-methyl-3-(2-pyridyl)-4,6,7,8-tetrahydropyrazolo[3,4-e][1,4]thiazepin-4-yl]benzamide] | 100 to 1000 nM | < 50% | 
Cn1nc(-c2ccccn2)c2c1NCCSC2c1ccncc1Cl (stereo not shown) [D.7] | < 100 nM | < 50% | 
Cc1nn(C)c2c1C(c1ccc(Cl)cc1Cl)SC(C)(C)C(=O)N2C (stereo not shown) | 1000 to 10000 nM | < 50% | 
CCn1nc(-c2ccccn2)c2c1N[C@H](C)CS[C@H]2c1ccc(CCC(C)(C)O)cc1C (single isomer, unassigned) [M.40, 4-(4-(1-ethyl-7-methyl-3-(pyridin-2-yl)-4,6,7,8-tetrahydro-1H-pyrazolo[3,4-e][1,4]thiazepin-4-yl)-3-methylphenyl)-2-methylbutan-2-ol] | < 100 nM | > 70% | 
Cn1nc(-c2ccccn2)c2c1NCCSC2c1ccccc1Cl (stereo not shown) | < 100 nM | < 50% | 
Cc1nn(C)c2c1C(c1ccc3[nH]ncc3c1)SCCN2 (stereo not shown) [D.76] | > 10000 nM | < 50% | 
Cc1cc(C(F)(F)F)ccc1C1SCCNc2c1c(-c1ccccn1)nn2C (stereo not shown) [D.41] | < 100 nM | < 50% | 
Cc1cc(-c2nn(C)c3c2C(c2ccc(Br)cc2C)SCCN3)on1 (stereo not shown) [D.29] | < 100 nM | < 50% | 
Cc1cc(Cl)ccc1[C@H]1S[C@@H](CCO)CNc2c1c(C)nn2C (single isomer, unassigned) [M.15, 2-[4-(4-chloro-2-methyl-phenyl)-1,3-dimethyl-4,6,7,8-tetrahydro-1H-pyrazolo[3,4-e][1,4]thiazepin-6-yl]-ethanol] | 100 to 1000 nM | > 70% | 

Reference: patent publication US9150592B2, “Heterocyclic nuclear hormone receptor modulators” (AbbVie Inc., priority 2012, dated 2015)
